According to US6750178B1, “Agrochemical composition” (Syngenta Limited, priority 1999, dated 2004):

Key:
Assay type in all cases: in vivo
SIDSP = experiment: Glass-house ED90 of paraquat dichloride plus adjuvant, SIDSP; conditions: paraquat dichloride 15, 45, 135 and 270 g/ha paraquat ion; adjuvant 0.1% w/v; 18 days after treatment
[1] = system: Soghinm halepenise(SORHA); experiment: Glass-house ED90 of glyphosate salts, SORHA; conditions: calculated dose for 90% control; rates 500-4000 glyphosate acid equivalent/ha; AL2042 0.25% w/v with all treatments; 22 days after treatment
From the text: This Example illustrates the use of salts of glyphosate acid and the adjuvants of Formula (I).
Glyphosate trimesium and the glyphosate salts of the indicated adjuvants of formula (I) were applied to Soghinm halepenise(SORHA) at 500, 1000, 2000 and 4000 glyphosate acid equivalent/ha. All treatments were made up in deionised water and applied using a tracksprayer with a 11002 nozzle at a spray application volume of 200 l/ha . All treatments were replicated 3 times. After spraying the plants were laid out in a glass-house and maintained at a temperature of 24° C. by day and 19° C. by night. A visual assessment of % control was carried out 22 days after treatment and calculated doses for 90% control (ED90) were derived. AL2042 alkylpolygylcoside was used at 0.25% w/v as additional surfactant with all treatments. It will be appreciated that a low ED90 value indicates high activity.

[2] = system: Abutilon theophrasti (ABUTH); experiment: Glass-house visual % control with potassium glyphosate plus adjuvant; conditions: potassium glyphosate 500 g glyphosate acid equivalent/ha, adjuvant 0.2% w/v, 200 l/ha, 16 days after treatment, 0=unaffected, 100=complete kill
Experimental: Potassium glyphosate was applied at 500 g glyphosate acid equivalent/ha to Abutilon theophrasti (ABUTH) plants grown in the glass-house. All treatments were made up in deionised water and applied using a tracksprayer with a 11002 nozzle at a spray application volume of 200 l/ha . All treatments were replicated 4 times. After spraying the plants were laid out in a glass-house and maintained at a temperature of 24° C. by day and 19° C. by night. The JEFFAMINE adjuvants were used in a proportion 0.2% w/v. A visual assessment of % control, where 0=unaffected and 100=complete kill, was carried out 16 days after treatment.

[3] = system: Ipomoea hederacea (IPOHE); experiment: Glass-house visual % control with potassium glyphosate plus adjuvant, IPOHE; conditions: potassium glyphosate 300 g glyphosate acid equivalent/ha, AL2042 0.2% w/v, CRODAFOS T5A salts 0.2% w/v phosphate ester acid equivalent, 16 days after treatment
From the text: This Example illustrates the use of a salt of ethoxy (5 moles of EO) isotridecyl phosphate, ester in the acid form (CRODAFOS T5A) with JEFFAMINE ED600. CRODAFOS T5A is a mixture of mono and di esters. CRODAFOS is a tradename of Croda.
Potassium glyphosate, in combination with the adjuvants specified below, was applied to Ipomoea hederacea (IPOHE) at 300 g glyphosate acid equivalent/ha. All treatments were made up in deionised water and applied using a tracksprayer with a 11002 nozzle at a spray application volume of 200 l/ha. All treatments were replicated 4 times. After spraying the plants were laid out in a glass-house and maintained at a temperature of 24° C. by day and 19° C. by night. A visual assessment of % control was carried out 16 days after treatment.
The AL2042 was applied at 0.2% w/v and the CRODAFOS T5A salts were applied at 0.2% w/v phosphate ester acid equivalent. The Crodafos T5A potassium salt was prepared by neutralising the phosphate ester in its acid form with potassium hydroxide to pH6. The CRODAFOS T5A JEFFAMINE ED600 salt was prepared by neutralising the phosphate ester in its acid form with JEFFAMINE ED600 to pH6.

C[n+]1ccc(-c2cc[n+](C)cc2)cc1 [Control — No adjuvant, Paraquat dichloride]
ED90 SIDSP (SIDSP): (>270) g paraquat ion per litre

C[S+](C)C.O=C([O-])CNCP(=O)(O)O [Glyphosate trimesium]
SORHA — ED90 [1]: 1410 gae/ha

O=C(O)CNCP(=O)([O-])O.[K+] [No adjuvant, Potassium glyphosate]
% control [2]: 37% | IPOHE — % control [3]: 64%
